US20030220361A1, “Nicotinamide derivatives and a tiotropium salt in combination for the treatment of diseases” (priority 2002, published 2003)

System: TNFα release from human peripheral blood mononuclear cells
Test: Inhibition of LPS-stimulated TNFα release from human peripheral blood mononuclear cells (TNFα screen)
Type: cell-based
Conditions: human PBMC, LPS stimulation, 18 hours incubation, TNFα in supernatant by ELISA
Procedure: Venous blood is collected from healthy volunteers and the mononuclear cells purified by centrifugation through Histopaque (Ficoll) cushions. TNFα production from these cells is stimulated by addition of lipopolysaccharide. After 18 hours incubation in the presence of LPS, the cell supernatant is removed and the concentration of TNFa in the supernatant determined by ELISA. Addition of PDE4 inhibitors reduces the. amount of TNFQ produced. An IC50 is determined which is equal to the concentration of compound that gives 50% inhibition TNFα production as compared to the LPS stimulated control wells.

SMILES	IC50 [nM]
O=C(N[C@H]1CC[C@H](NC(=O)c2cc(F)cnc2Oc2ccc(F)cc2)CC1)c1cc(Cl)ccc1O [Example 20]	113
O=C(NC1CCN(C(=O)c2cccc(O)c2)CC1)c1cc(F)cnc1Oc1ccc(F)cc1 [Example 80]	7.4
Cc1cccc(C(=O)NC2CCC(NC(=O)c3cc(F)cnc3Oc3ccc(Cl)c(F)c3)CC2)c1O (stereo not shown) [Example 210]	13
O=C(NCc1ccccc1O)NC1CCC(NC(=O)c2cc(F)cnc2Oc2ccc(F)cc2)CC1 (stereo not drawn) [Example 72, Syn-5-Fluoro-2-(4-fluoro-phenoxy)-N-{4-[3-(2-hydroxy-benzyl)-ureido]-cyclohexyl}-nicotinamide]	1.1
O=C(N[C@H]1CC[C@H](NC(=O)c2c(O)cccc2F)CC1)c1cc(F)cnc1Oc1ccc(F)cc1 [Example 17]	8.5
Cc1ccc(C(=O)N[C@H]2CC[C@@H](NC(=O)c3cc(F)cnc3Oc3cccc(C(F)(F)F)c3)CC2)c(O)c1 [Example 199]	0.7
Cc1ccc(C(=O)NC2CCC(NC(=O)c3cc(F)cnc3Oc3cc(F)cc(F)c3)CC2)c(O)c1 (stereo not shown) [Example 217]	0.3
Cc1ccc(O)c(C(=O)N[C@H]2CC[C@@H](NC(=O)c3cc(F)cnc3Oc3cccc(OC4CCC4)c3)CC2)c1 [Example 205]	0.55
Cc1cccc(C(=O)NC2CCC(NC(=O)c3cc(F)cnc3Oc3ccc(F)c(F)c3)CC2)c1O (stereo not shown) [Example 208]	0.09
COc1cc(O)c(C(=O)N[C@H]2CC[C@H](NC(=O)c3cc(F)cnc3Oc3ccc(F)cc3)CC2)c(OC)c1 [Example 30]	2.6
COc1ccc(C(=O)N[C@H]2CC[C@@H](NC(=O)c3cc(F)cnc3Oc3cccc(F)c3)CC2)c(O)c1 [Example 152]	0.2
O=C(N[C@H]1CC[C@@H](NC(=O)c2c(O)cccc2O)CC1)c1cc(F)cnc1Oc1ccc(F)c(F)c1 [Example 178]	0.15
O=C(N[C@H]1CC[C@H](NC(=O)c2ccc3ccccc3c2O)CC1)c1cc(F)cnc1Oc1ccc(F)cc1 [Example 22]	156
Cc1ccc(O)c(C(=O)N[C@H]2CC[C@H](NC(=O)c3cc(F)cnc3Oc3ccc4c(c3)OCO4)CC2)c1 [Example 8]	22
Cc1ccc(C(=O)N[C@H]2CC[C@@H](NC(=O)c3cc(F)cnc3Oc3ccc(F)cc3C)CC2)c(O)c1 [Example 203]	7
O=C(O)c1ccccc1C(=O)NC1CCC(NC(=O)c2cc(F)cnc2Oc2ccc(F)cc2)CC1 (stereo not shown) [Example 76]	49
CCc1cccc(Oc2ncc(F)cc2C(=O)N[C@H]2CC[C@@H](NC(=O)c3ccc(OC)cc3O)CC2)c1 [Example 157]	2
O=C(N[C@H]1CC[C@@H](C(=O)NCc2ccc(O)cc2F)CC1)c1cccnc1Oc1ccc(F)cc1 [Example 173, Syn-N-[4-(2-Fluoro-4-hydroxy-benzyl-carbamoyl)-cyclohexyl]-2-(4-fluoro-phenoxy)-nicotinamide]	2.1
COC(=O)c1cccc(C(=O)N[C@H]2CC[C@@H](NC(=O)c3cc(F)cnc3Oc3ccc(F)cc3)CC2)n1 [Example 123]	21
